Experimental data: US6265450A, “Anti-stress composition” (Suntory Limited, priority 1995, dated 2001)
Where two headings read alike, the source gives them in different places.

Tests used:
[1] = test system: P815 mastocytoma; test: Effect of restraint stress on promotion of cancer metastasis (transplanted nodes on liver surface); format: in vivo, male DBA/2 mice; settings: Roche synthetic astaxanthin, 1 mg/kg by gavage three times in MCT; 16 days after transplantation; FIG. 7
Experimental: 7 week old, male DBA/2 mice were purchased from Japan Clea Co., Ltd., and after housing on a preliminary basis for 1 week in a specific pathogen free (SPF) atmosphere, the animals were used in the experiment at age 8 weeks.
The experimental mice were divided into three groups consisting of a restraint stress non-loaded control group (8 mice), a restraint stress loaded control group (8 mice) and a restraint stress loaded astaxanthin group (9 mice). Astaxanthin was administered orally by gavage three times on the day before restraint, immediately after the start of restraint and the day after the start of restraint at a dose of 1 mg/kg (MCT solution) each. Roche astaxanthin, a synthetic form of astaxanthin, was used for the test substance, while the control groups were orally administered MCT only three times by gavage. Restraint stress loading was performed under the same conditions as Example 1.
Mastocytoma subcultured in the abdominal cavities of DBA/2 mice in this laboratory was used for the P815 mastocytoma (DBA/2 mouse cutaneous mastocytoma). 1×10^4 cells/animal were transplanted into the caudal vein of each animal. […] The liver was excised 16 days after transplantation and after Vaughn's fixation, the number of transplanted nodes on the liver surface was measured.

[2] = test system: thymus weight; test: Effect of restraint stress on decreased thymus weight; format: in vivo, male C57BL/6 mice; settings: Astaxanthin (Roche) in MCT; for minimal effective dose: Mus musculus, po
From the text: Six week old, male C57BL/6 mice were purchased from Japan Clea Co., Ltd., and after preliminarily keeping for 1 week in an SPF (specific pathogen free) environment, were used in the experiment at age 7 weeks.
The mice were divided into a restrained group (16 mice) and a non-restrained group (5 mice). The unrestrained group was used as a control group. The restrained group was further divided into 4 groups of 4 mice each, and designated as the restrained control group, vitamin E group, β-carotene group and astaxanthin group. The restrained groups were restrained for 20 hours in metal restraint cages under conditions of minimal body movement and access to drinking water to induce restraint stress.
ASTAX 5000 manufactured by Itano Refrigated Food Co., Ltd. (containing 3.57% astaxanthin diester and 1.53% astaxanthin monoester), extracted and purified from krill, was used for astaxanthin. ASTAX 5000 was dissolved in medium chain fatty acid triglyceride (MCT) to a concentration of 100 mg/10 ml as astaxanthin content and used as the test substance solution. Vitamin E and β-carotene were dissolved in MCT, and MCT only was administered to the control group. The test substances were given orally three times on the day before restraint, immediately after restraint, and on the day after restraint at a dose of 100 mg/kg, for each test substance.
The mice were sacrificed by dislocation of the cervical vertebra 48 hours after the start of restraint. The thymus gland was excised and weighed.
Astaxanthin (Roche) was dissolved in MCT to astaxanthin concentrations of 0.04 mg/10 ml, 0.2 mg/10 ml, 1.0 mg/10 ml and 5.0 mg/10 ml to prepare the test substance solutions.
Thymus weight and spleen-origin NK cell activity were measured using the same procedures as described in Examples 1 and 2.

[3] = test system: cancer cell; settings: cited from earlier work
[4] = test system: antibody production; settings: cited from earlier work
[5] = cited from earlier work

In the case of `CC1=C(/C=C/C(C)=C/C=C/C(C)=C/C=C/C=C(C)/C=C/C=C(C)/C=C/C2=C(C)C(=O)[C@@H](O)CC2(C)C)C(C)(C)C[C@H](O)C1=O` [astaxanthin], the “inhibition of promotion of cancer metastasis caused by stress” value [1] is reported as “remarkable inhibition of promotion of cancer metastasis”, the “inhibitory effect on decreases in thymus weight caused by stress loading” value ([2]; 0.04-5.0 mg/10 ml, FIG. 5) is reported as “dose-dependent inhibitory effects” and the minimal effective dose ([2]; FIG. 5, read-out: doses at which the effect on decreased thymus weight was significant) is reported as ≥ 1 mg/kg. The minimal effective dose ([2]; suggested by thymus weight and NK cell activity, read-out: minimum effective dose of the anti-stress effect) was ~1 mg/kg, the “cancer cell growth inhibitory activity” value [3] was “cancer cell growth inhibitory activity” and the antibody production activity [4] was “antibody production activity”. For the same molecule, the “oxidation and decomposition in air” value [5] was “easily oxidized and decompose relatively easily in air”.
